Where a SMILES comes first, the peptide text is derived from it. Bridges are numbered along the chain shown (N, C = ends). The star is where a group is joined. Carbamoyl = NC(=O)*

Holding throughout (format): cell-based
The target of test [1] is Melanocortin receptor 4 (Homo sapiens, UniProt P32245). The test is described as follows: Displacement of [125I]-NDP-alpha-MSH from human MC4R expressed in CHO cells by Topcount beta counter analysis. A general note: Loss of bound radioactivity is the signal in a displacement assay; it reports binding, not function.
In test [2] the target is Melanocortin receptor 3 (Homo sapiens, UniProt P41968). The test is described as follows: Displacement of [125I]-NDP-alpha-MSH from human MC3R expressed in HEK293 cells by Topcount beta counter analysis.
Test [3] deals with Melanocortin receptor 5 (Homo sapiens, UniProt P33032). The test is described as follows: Displacement of [125I]-NDP-alpha-MSH from human MC5R expressed in CHO cells by Topcount beta counter analysis.
The target of test [4] is Melanocyte-stimulating hormone receptor (Homo sapiens, UniProt Q01726). The test is described as follows: Displacement of [125I]-NDP-alpha-MSH from human MC1R expressed in CHO cells by Topcount beta counter analysis.
Melanocyte-stimulating hormone receptor, sequence (Q01726 whole entry): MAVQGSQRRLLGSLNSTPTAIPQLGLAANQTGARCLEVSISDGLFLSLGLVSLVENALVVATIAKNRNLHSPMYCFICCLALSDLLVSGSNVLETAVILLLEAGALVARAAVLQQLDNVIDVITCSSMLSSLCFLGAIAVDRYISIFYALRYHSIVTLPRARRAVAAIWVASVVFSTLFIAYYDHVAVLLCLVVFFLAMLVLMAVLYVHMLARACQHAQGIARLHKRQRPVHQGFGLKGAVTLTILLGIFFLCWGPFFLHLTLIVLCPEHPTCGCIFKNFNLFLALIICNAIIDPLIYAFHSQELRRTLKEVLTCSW

Melanocortin receptor 4, sequence (P32245 whole entry): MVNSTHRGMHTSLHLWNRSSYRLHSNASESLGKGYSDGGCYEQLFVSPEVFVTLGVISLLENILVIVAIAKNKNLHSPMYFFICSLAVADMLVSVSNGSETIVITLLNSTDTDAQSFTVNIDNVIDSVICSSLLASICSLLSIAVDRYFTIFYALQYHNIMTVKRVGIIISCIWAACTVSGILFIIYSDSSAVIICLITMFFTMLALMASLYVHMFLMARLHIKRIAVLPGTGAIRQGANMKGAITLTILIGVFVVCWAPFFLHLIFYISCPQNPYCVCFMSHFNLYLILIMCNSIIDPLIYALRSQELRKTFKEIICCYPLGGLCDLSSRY
Melanocortin receptor 5, sequence (P33032 whole entry): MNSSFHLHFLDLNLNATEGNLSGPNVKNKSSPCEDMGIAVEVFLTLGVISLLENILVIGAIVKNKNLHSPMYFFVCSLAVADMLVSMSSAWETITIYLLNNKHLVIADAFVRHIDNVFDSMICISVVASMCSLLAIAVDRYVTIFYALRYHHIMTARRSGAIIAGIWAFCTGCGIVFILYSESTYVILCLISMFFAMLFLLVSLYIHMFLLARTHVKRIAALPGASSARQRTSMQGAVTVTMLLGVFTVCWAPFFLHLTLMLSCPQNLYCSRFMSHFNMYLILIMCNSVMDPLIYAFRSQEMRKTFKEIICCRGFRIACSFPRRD
Melanocortin receptor 3, sequence (P41968 whole entry): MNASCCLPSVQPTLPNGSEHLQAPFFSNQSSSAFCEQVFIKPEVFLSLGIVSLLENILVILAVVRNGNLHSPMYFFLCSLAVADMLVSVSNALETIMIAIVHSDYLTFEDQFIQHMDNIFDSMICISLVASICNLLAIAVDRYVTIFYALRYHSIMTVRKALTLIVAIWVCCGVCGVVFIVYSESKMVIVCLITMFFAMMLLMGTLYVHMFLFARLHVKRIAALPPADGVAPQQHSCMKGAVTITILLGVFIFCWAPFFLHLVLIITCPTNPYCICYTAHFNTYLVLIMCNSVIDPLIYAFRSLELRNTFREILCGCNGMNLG

`CC(C)C[C@H](NC(=O)[C@H](CCC(=O)O)NC(=O)[C@H](Cc1ccccc1)NC(=O)[C@H](CCC(N)=O)NC(=O)[C@H](CCC(N)=O)N1C(=O)[C@@H](NC(=O)[C@H](CCCCN)NC(=O)CNC(=O)[C@H](CCCCN)NC(=O)[C@H](Cc2ccccc2)NC(=O)CNC(=O)[C@@H]2CCCN2C(=O)[C@@H]2CCCN2C(=O)[C@H](CCCCN)NC(=O)[C@H](CCC(N)=O)NC(=O)[C@H](CCCCN)NC(=O)[C@H](CCC(N)=O)NC(=O)[C@H](CCC(N)=O)NC(=O)[C@H](Cc2ccc(O)cc2)NC(=O)[C@H](Cc2c[nH]cn2)NC(=O)[C@H](Cc2ccccc2)NC(=O)[C@@H](N)CC(C)C)Cc2ccccc21)C(=O)N[C@@H](CCCNC(=N)N)C(=O)N1CCC[C@H]1C(=O)N1CCC[C@H]1C(=O)O`: the Ki was 91 nM in test [1] (read-out: Ki) and 89.1 nM in test [1] (read-out: pKi (converted)).
With `CC(C)C[C@H](NC(=O)[C@H](CCCCN)NC(=O)[C@H](Cc1ccccc1)NC(=O)[C@H](CCC(N)=O)NC(=O)[C@@H]1CSSC[C@@H]2NC(=O)[C@H](CCC(N)=O)NC(=O)[C@@H](NC(=O)[C@H](Cc3ccc(O)cc3)NC(=O)[C@H](Cc3c[nH]cn3)NC(=O)[C@H](Cc3ccccc3)NC(=O)[C@@H](N)CC(C)C)CSSC[C@H](NC(=O)[C@H](CCC(N)=O)NC2=O)C(=O)N2CCC[C@H]2C(=O)N2CCC[C@H]2C(=O)NCC(=O)N[C@@H](Cc2ccccc2)C(=O)N[C@@H](CCCCN)C(=O)NCC(=O)N[C@@H](CCCCN)C(=O)N[C@@H](Cc2ccccc2)C(=O)N1)C(=O)N[C@@H](CCCNC(=N)N)C(=O)N1CCC[C@H]1C(=O)N1CCC[C@H]1C(=O)O` (H-LFHYCQCQCPPGFKGKFCQFKLRPP-OH; disulfide 5-9, 7-18), the Ki in test [2] (read-out: Ki) is 90 nM; in test [3] (read-out: Ki), 53 nM; in test [3] (read-out: pKi (converted)), 33.9 nM; in test [4] (read-out: Ki), 549 nM; in test [4] (read-out: pKi (converted)) it was 617 nM; in test [1] (read-out: Ki), 49 nM. The Ki in test [1] (read-out: pKi (converted)) is 44.7 nM.
With `CC(C)C[C@H](NC(=O)[C@H](CCCCN)NC(=O)[C@H](Cc1ccccc1)NC(=O)[C@H](CCC(N)=O)NC(=O)[C@@H]1CSSC[C@H](NC(=O)[C@H](CCC(N)=O)NC(=O)[C@H](C)NC(=O)[C@H](Cc2ccc(O)cc2)NC(=O)[C@H](Cc2c[nH]cn2)NC(=O)[C@H](Cc2ccccc2)NC(=O)[C@@H](N)CC(C)C)C(=O)N[C@@H](CCC(N)=O)C(=O)N[C@@H](C)C(=O)N2CCC[C@H]2C(=O)N2CCC[C@H]2C(=O)NCC(=O)N[C@@H](Cc2ccccc2)C(=O)N[C@@H](CCCCN)C(=O)NCC(=O)N[C@@H](CCCCN)C(=O)N[C@@H](Cc2ccccc2)C(=O)N1)C(=O)N[C@@H](CCCNC(=N)N)C(=O)N1CCC[C@H]1C(=O)N1CCC[C@H]1C(=O)O` (H-LFHYAQCQAPPGFKGKFCQFKLRPP-OH; disulfide 7-18), the Ki in test [1] (read-out: pKi (converted)) is 245 nM.
Consider H-LAHYQQKQKPPGFKGKFQQFKLRPP-OH, for which the Ki in test [1] (read-out: Ki) was 236 nM.
Consider H-LFHYQQKQKPPGFKGKFQQFKL-OH, for which the Ki is 29 nM in test [1] (read-out: Ki) and 27.5 nM in test [1] (read-out: pKi (converted)).
For the compound `CC(C)C[C@H](NC(=O)[C@H](CCCCN)NC(=O)[C@H](Cc1ccccc1)NC(=O)[C@H](CCC(N)=O)NC(=O)[C@@H]1CSSC[C@H](NC(=O)[C@H](Cc2ccc(O)cc2)NC(=O)[C@H](Cc2c[nH]cn2)NC(=O)[C@H](Cc2ccccc2)NC(=O)[C@@H](N)CC(C)C)C(=O)N[C@@H](CCC(N)=O)C(=O)N[C@@H](C)C(=O)N[C@@H](CCC(N)=O)C(=O)N[C@@H](C)C(=O)N2CCC[C@H]2C(=O)N2CCC[C@H]2C(=O)NCC(=O)N[C@@H](Cc2ccccc2)C(=O)N[C@@H](CCCCN)C(=O)NCC(=O)N[C@@H](CCCCN)C(=O)N[C@@H](Cc2ccccc2)C(=O)N1)C(=O)N[C@@H](CCCNC(=N)N)C(=O)N1CCC[C@H]1C(=O)N1CCC[C@H]1C(=O)O` (H-LFHYCQAQAPPGFKGKFCQFKLRPP-OH; disulfide 5-18), the Ki in test [2] (read-out: pKi (converted)) was 170 nM; in test [3] (read-out: pKi (converted)), 195 nM; in test [4] (read-out: pKi (converted)) it was 912 nM; in test [1] (read-out: pKi (converted)), 117 nM.
For `CC(C)C[C@H](NC(=O)[C@H](CCCCN)NC(=O)[C@H](Cc1ccccc1)NC(=O)[C@H](CCC(N)=O)NC(=O)[C@@H]1CSSC[C@H](NC(=O)[C@H](Cc2ccc(O)cc2)NC(=O)[C@H](Cc2c[nH]cn2)NC(=O)[C@H](Cc2ccccc2)NC(=O)[C@@H](N)CC(C)C)C(=O)N[C@@H](CCC(N)=O)C(=O)N[C@@H](CO)C(=O)N[C@@H](CCC(N)=O)C(=O)N[C@@H](CO)C(=O)N2CCC[C@H]2C(=O)N2CCC[C@H]2C(=O)NCC(=O)N[C@@H](Cc2ccccc2)C(=O)N[C@@H](CCCCN)C(=O)NCC(=O)N[C@@H](CCCCN)C(=O)N[C@@H](Cc2ccccc2)C(=O)N1)C(=O)N[C@@H](CCCNC(=N)N)C(=O)N1CCC[C@H]1C(=O)N1CCC[C@H]1C(=O)O` (H-LFHYCQSQSPPGFKGKFCQFKLRPP-OH; disulfide 5-18) the same measures were 224 nM, 229 nM, 776 nM and 67.6 nM.
Taken in the same sequence, the figures for `CC(C)C[C@@H]1NC(=O)[C@H](CCC(N)=O)NC(=O)[C@@H](NC(=O)[C@H](Cc2ccc(O)cc2)NC(=O)[C@H](Cc2c[nH]cn2)NC(=O)[C@H](Cc2ccccc2)NC(=O)[C@@H](N)CC(C)C)CSSC[C@@H](C(=O)N[C@@H](CCC(N)=O)C(=O)N[C@@H](Cc2ccccc2)C(=O)N[C@@H](CCCCN)C(=O)N[C@@H](CC(C)C)C(=O)N[C@@H](CCCNC(=N)N)C(=O)N2CCC[C@H]2C(=O)N2CCC[C@H]2C(=O)O)NC(=O)[C@H](Cc2ccccc2)NC(=O)[C@H](CCCCN)NC(=O)CNC(=O)[C@H](CCCCN)NC(=O)[C@H](Cc2ccccc2)NC(=O)CNC(=O)[C@@H]2CCCN2C(=O)[C@@H]2CCCN2C(=O)[C@H](CC(C)C)NC(=O)[C@H](CCC(N)=O)NC1=O` (H-LFHYCQLQLPPGFKGKFCQFKLRPP-OH; disulfide 5-18) were 275 nM, 117 nM, 398 nM and 93.3 nM.
Turning to `CC(C)C[C@H](NC(=O)[C@H](CCCCN)NC(=O)[C@H](Cc1ccccc1)NC(=O)[C@H](CCC(N)=O)NC(=O)[C@@H]1CSSC[C@H](NC(=O)[C@H](CCC(N)=O)NC(=O)[C@H](C)NC(=O)[C@H](CCC(N)=O)NC(=O)[C@H](C)NC(=O)[C@H](Cc2ccc(O)cc2)NC(=O)[C@H](Cc2c[nH]cn2)NC(=O)[C@H](Cc2ccccc2)NC(=O)[C@@H](N)CC(C)C)C(=O)N2CCC[C@H]2C(=O)N2CCC[C@H]2C(=O)NCC(=O)N[C@@H](Cc2ccccc2)C(=O)N[C@@H](CCCCN)C(=O)NCC(=O)N[C@@H](CCCCN)C(=O)N[C@@H](Cc2ccccc2)C(=O)N1)C(=O)N[C@@H](CCCNC(=N)N)C(=O)N1CCC[C@H]1C(=O)N1CCC[C@H]1C(=O)O` (H-LFHYAQAQCPPGFKGKFCQFKLRPP-OH; disulfide 9-18), the Ki in test [1] (read-out: pKi (converted)) was 245 nM.
In the case of H-LFHYQQKQKPPGFKGKFQQF-OH, the Ki is 55 nM in test [1] (read-out: Ki) and 53.7 nM in test [1] (read-out: pKi (converted)).
For H-LFHYQQKQKPPGFKGKFQQFKLRPP-NH2 the same measures were 9 nM and 8.13 nM.
For the compound H-LFHAQQKQKPPGFKGKFQQFKLRPP-OH, in test [1] (read-out: Ki), the Ki turned out to be 111 nM.
Take H-LFHYQQKQKPPGFKGAFQQFKLRPP-OH: the figures for the Ki in test [1] (read-out: Ki) and in test [1] (read-out: pKi (converted)) were 75 nM and 72.4 nM, respectively.
For H-FHYQQKQKPPGFKGKFQQFKLRPP-OH the same measures were 334 nM and 288 nM.
Consider H-LFHYQQKQKPPGFAGKFQQFKLRPP-OH, for which, in test [1] (read-out: Ki), the Ki is 54 nM.
For the compound Ac-LFHYQQKQKPPGFKGKFQQFKLRPP-OH, the Ki in test [1] (read-out: Ki) was 138 nM; in test [1] (read-out: pKi (converted)), 135 nM.
Taken in the same sequence, the figures for H-AFHYQQKQKPPGFKGKFQQFKLRPP-OH were 125 nM and 123 nM.
For H-LFHYQQKQKPPGFKGKFQQFKLR-OH the same measures were 14 nM and 12.3 nM.
For H-YQQKQKPPGFKGKFQQFKLRPP-OH the same measures were 1440 nM and 1320 nM.
In the case of H-HYQQKQKPPGFKGKFQQFKLRPP-OH, the Ki in test [1] (read-out: Ki) was 2200 nM; in test [1] (read-out: pKi (converted)), 2040 nM.
Regarding `CC(C)C[C@H](NC(=O)[C@H](CCCCN)NC(=O)[C@H](Cc1ccccc1)NC(=O)[C@H](CCC(N)=O)NC(=O)[C@@H]1CSSC[C@H](NC(=O)[C@@H](Cc2ccc(O)cc2)NC(=O)[C@H](Cc2c[nH]cn2)NC(=O)[C@H](Cc2ccccc2)NC(=O)[C@@H](N)CC(C)C)C(=O)N[C@@H](CCC(N)=O)C(=O)N[C@@H](CCCCN)C(=O)N[C@@H](CCC(N)=O)C(=O)N[C@@H](CCCCN)C(=O)N2CCC[C@H]2C(=O)N2CCC[C@H]2C(=O)NCC(=O)N[C@@H](Cc2ccccc2)C(=O)N[C@@H](CCCCN)C(=O)NCC(=O)N[C@@H](CCCCN)C(=O)N[C@@H](Cc2ccccc2)C(=O)N1)C(=O)N[C@@H](CCCNC(=N)N)C(=O)N1CCC[C@H]1C(=O)N1CCC[C@H]1C(=O)O`, the Ki in test [2] (read-out: pKi (converted)) is 30.9 nM; in test [3] (read-out: pKi (converted)), 25.7 nM; in test [4] (read-out: pKi (converted)) it was 85.1 nM; in test [1] (read-out: pKi (converted)) it was 6.92 nM.
For `CC(C)C[C@H](NC(=O)[C@H](CCCCN)NC(=O)[C@H](Cc1ccccc1)NC(=O)[C@H](CCC(N)=O)NC(=O)[C@H](CSC(N)=O)NC(=O)[C@H](Cc1ccccc1)NC(=O)[C@H](CCCCN)NC(=O)CNC(=O)[C@H](CCCCN)NC(=O)[C@H](Cc1ccccc1)NC(=O)CNC(=O)[C@@H]1CCCN1C(=O)[C@@H]1CCCN1C(=O)[C@H](CCCCN)NC(=O)[C@H](CCC(N)=O)NC(=O)[C@H](CCCCN)NC(=O)[C@H](CCC(N)=O)NC(=O)[C@H](CSC(N)=O)NC(=O)[C@H](Cc1ccc(O)cc1)NC(=O)[C@H](Cc1cnc[nH]1)NC(=O)[C@H](Cc1ccccc1)NC(=O)[C@@H](N)CC(C)C)C(=O)N[C@@H](CCCNC(=N)N)C(=O)N1CCC[C@H]1C(=O)N1CCC[C@H]1C(=O)O` (H-LFHYC(Carbamoyl)QKQKPPGFKGKFC(Carbamoyl)QFKLRPP-OH) the same measures were 37.2 nM, 135 nM, 110 nM and 12.6 nM.
Turning to H-LFHYQQKQKPPGFEGKFQQFKLRPP-OH, the Ki is 262 nM in test [1] (read-out: Ki) and 257 nM in test [1] (read-out: pKi (converted)).
Turning to H-LFHYQQKQKPPGFKGEFQQFKLRPP-OH, the Ki in test [1] (read-out: Ki) amounted to 203 nM.

The values are drawn from ChEMBL document CHEMBL5113520, “From a Cone Snail Toxin to a Competitive MC4R Antagonist” (J Med Chem, 2022).
